We go through one molecule from patent US9415018B2, “Methods for improving muscle strength” (Washington University, priority 2012, dated 2016).

In data set [1] the test system is mdx mouse diaphragm muscle. Nature of the data set: Fluorescence staining of nanoparticle and rapamycin deposition in mdx diaphragm. Type of data set: in vivo. The following applies: mdx mouse treated with rapamycin-loaded nanoparticles. From the text:
The nanoparticles were rhodamine-labeled, and the rapamycin was labeled with Cy-7.

The conditions of data set [2]: humans; cited from earlier work.

Regarding `CO[C@H]1C[C@@H]2CC[C@@H](C)[C@@](O)(O2)C(=O)C(=O)N2CCCC[C@H]2C(=O)O[C@H]([C@H](C)C[C@@H]2CC[C@@H](O)[C@H](OC)C2)CC(=O)[C@H](C)/C=C(\C)[C@@H](O)[C@@H](OC)C(=O)[C@H](C)C[C@H](C)/C=C/C=C/C=C/1C` [rapamycin], the “distribution of Cy-7 labeled rapamycin in diaphragm muscle” value in data set [1] is “both punctate and diffuse staining”. The oral absorption in data set [2] is reported as 18%.
